# Measured values from US20160143955A1, “METHOD FOR ISOLATING STROMAL VASCULAR FRACTION” (AGENCY FOR SCIENCE, TECHNOLOGY AND RESEARCH, priority 2013, published 2016).
# Test system: adipose-derived stem cells recovered from fat tissue
# Assay: Yield of adipose-derived stem cells (ASCs) after seven days of growth, compared to the collagenase-based method
# Type: cell-based
# Settings: mince 2.5 mins, incubate with agent at 37° C. for 1 hour; ASCs after seven days of growth vs collagenase-based method
# Experimental: Fat tissue (adipose tissue) obtained as lipoaspirate or resected via surgeries are to be obtained prior conducting any of the methods as described herein. To ensure optimum cell viability, immediate isolation of stromal vascular fraction on the day the sample is obtained is recommended. However, the methods as described herein may be performed optimally within 24 hours of sample being obtained. If the methods of the present disclosure cannot be performed immediately upon harvest of sample or within 72 hours of the sample being obtained, the sample was stored at 4° C. In case of enzymatic digestion, the sample is brought to room temperature before proceeding to the isolation procedure.
# Upon obtaining the sample as lipoaspirate, to remove debris, the fat tissue was washed with equal amount of buffer (such as phosphate buffered saline (PBS) or Hank's balanced salt solution (HBSS)). For example, for 50 cc or 50 gram volume of lipoaspirate, 50 ml of buffer was used. Washed sample was allowed to settle for a couple of minutes and fluid from the bottom was aspirated to leave fat layer in the top. Washing steps were repeated two times. Collected fat layer was divided into the different methods as described below.
# i) Add an equal volume of collagenase solution (ml per gram or cc of fat pads) into one sterile vial and warm to 37° C. Typically, collagenase solution is composed of 2.5 μg/ml collagenase type I, 1% (wt/vol) Bovine Serum Albumin (BSA), 50 μg/ml D-glucose and 200 nM adenosine in buffer;
# i) Place washed fat tissue into appropriate tubes. Add equal volume of HBSS solution. Usually 10 ml of fat is used for each variable for replicate treatment/plating. Resected fat is favorable for consistency of cell yield, but manually harvested lipoaspirates are acceptable though additional optimization work described below is recommended;
# When homogenizer is to be used, mildly homogenize fat tissue samples at the lowest level setting for 1 min. As would be apparent to the skilled person in the art, different homogenizers would give very different results. […] Optimization for different type of fat tissues must be conducted to obtain optimized parameters and lengths of homogenizing time;
# vi) Centrifuge samples at 450 g (about 1800 RPM) for 5 min to pellet dissociated stromal vascular fraction cells. […] Discard the top layer of floating mature adipocytes;
# xii) Re-suspend pellet in buffer (PBS or HBSS; 1 ml per 100 cc original tissue). Sample out 10 μl and count cell number in 1:1 mixture of trypan blue by hemocytometer or automated cell counter.
# xv) Plate into appropriate dishes and incubate culture plates in 37° C., 5% CO2 incubator. […]
# The isolated stromal vascular fraction cells in the methods described above were analyzed for their qualities and yield of adipose-derived stem cells. […]
row,Compound,Yield (percentage yield of adipose-derived stem cells recovered) [%]
1,"CNC[C@H](O)c1ccc(O)c(O)c1 [Epinephrine, epinephrine]",>85
2,"CC(C)NCC(O)c1ccc(O)c(O)c1 (stereo not shown) [Isoprenaline, isoprenaline]",>70
3,Sodium deoxycholate [Sodium deoxycholate (SOC)],0
4,Triton-X,0
